Earlier results as cited in patent publication EP2085120A1, “The use of substances for the treatment of central or peripheral insulin receptor impairment and insulin resistance” (Merz Pharma GmbH & Co. KGaA, priority 2008, dated 2009).

Test system: cultured hippocampal and cortical neurons
Details: cultured hippocampal and cortical neurons pretreated with ADDLs or ADDL/glutamate; addition of an NMDA receptor antagonist

SMILES: CC12CC3CC(C)(C1)CC(N)(C3)C2 [memantine]
- ADDL and glutamate-induced decreased insulin sensitivity: reversible
